Laboratory results as given in patent publication US4978744A, “Synthesis of dolastatin 10” (Arizona Board of Regents, priority 1989, dated 1990).

Test system: P388 lymphocytic leukemia
Test: Activity against the P388 lymphocytic leukemia
Type: cell-based
Conditions: same level as routinely obtained with the natural product

With dolastatin 10 [Synthetic dolastatin 10] the “ED50, activity against the P388 lymphocytic leukemia” value was 10^-4 μg/mL.
